23 compounds from PubChem BioAssay (NCI) can be followed below.

Common to all, as to assay: NCI-60 cell line screen, 48 h
Assay [1] deals with A498 renal.
Assay [2] relates to COLO 205 colon.
Assay [3] has as its system HL-60(TB) leukemia.
Assay [4] has as its system LOX IMVI melanoma.
The subject of assay [5] is MCF7 breast.
For assay [6], the system named is NCI-H226 lung.
Assay [7] concerns OVCAR-4 ovarian.
Assay [8] deals with SF-295 CNS.
Assay [9] concerns SK-MEL-28 melanoma.
In assay [10] the test system is UO-31 renal.
The test system of assay [11] is OVCAR-5 ovarian.
The subject of assay [12] is MALME-3M melanoma.

Several values for one entry are separate records, joined by “and”; a condition that tells them apart may be missing. Equal entries are not always repeated.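 Assay format: 96-well plates, 48-hour exposure. GI50 marks 50% less growth. TGI: concentration producing complete growth inhibition.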 Where a SMILES comes first, the peptide text is derived from it.

As to `CCOC(=O)C1=C(Nc2cccc(OC)c2)OCC1=O`, the TGI in assay [1], in assay [2], in [3], in [4], in [5] and in assay [6] was > 100 µM throughout. In addition, the TGI in assay [7], in [8], in [9] and in assay [10] was > 100 µM in each case.
For the compound `CC1=CC(C2/C(=N/O)C=C(C)CC2(C)C)C(O)C(C)(C)C1` (stereo unspecified), the TGI in [1] is 33.3 µM; in assay [2], 36 µM; in [3], 37.2 µM; in assay [4], 32.3 µM; in assay [5], 30.4 µM; in assay [6] it was 33.7 µM. For the same compound, the TGI is 29.8 µM in assay [7]; 34.8 µM in assay [11]; 32.9 µM in assay [8]; 30.9 µM in assay [9]; 29 µM in assay [10].
Regarding `CN(C)C1=Nc2ccccc2C(=S)N2CSCC12` (stereo unspecified), the TGI in assay [1] was > 100 µM; in [2] it was 52 µM; in assay [4], > 100 µM; in assay [12] it was 51.8 µM; in assay [5] it was > 100 µM; in assay [6], > 100 µM. For the same compound, the TGI in assay [7], in assay [11], in assay [8], in assay [9] and in assay [10] was > 100 µM throughout.
On to `CCC(C)C(NC(=O)C(CCCCN)NC(=O)C(NC(=O)C(CCC(N)=O)NC(=O)C(N)CCCNC(=N)N)C(C)CC)C(=O)NC(Cc1c[nH]c2ccccc12)C(=O)NC(Cc1ccccc1)C(=O)NC(CCC(N)=O)C(=O)NC(CC(N)=O)C(=O)NC(CCCNC(=N)N)C(=O)NC(CCCNC(=N)N)C(=O)NC(CCSC)C(=O)NC(CCCCN)C(=O)NC(Cc1c[nH]c2ccccc12)C(=O)NC(CCCCN)C(=O)NC(CCCCN)C(=O)N1CCCC1C(=O)NC(C)C(=O)NC(CCCCN)C(=O)NC(CCCNC(=N)N)C(=O)NC(CCCCN)C(=O)NC(CC(C)C)C(=O)NC(Cc1ccccc1)C(=O)NCC(=O)O` (stereo unspecified) (H-RQIKIWFQNRRMKWKKPAKRKLFG-OH; configuration not given here), for which the TGI was > 25 µM in [2]; 17.6 µM in [3]; > 25 µM in assay [4]; 18.3 µM in assay [12]; > 25 µM in assay [5]; > 25 µM in assay [6]. Besides, the TGI in [7], in assay [11], in [8], in assay [9] and in assay [10] was > 25 µM in each case.
Take `COc1ccc2c(c1)CC[C@@H]1[C@@H]2CC[C@]2(C)C(=O)/C(=C/c3ccc(OC)c(OC)c3)C[C@@H]12`: the TGI in [1], in assay [3], in assay [12], in assay [5], in [7] and in assay [11] was > 100 µM each time. Also, the TGI in assay [8] and in [10] was > 100 µM each time.
With `CC(=O)Oc1ccccc1-c1cc2ccccc2oc1=O`, the TGI in assay [1], in [2], in assay [3], in assay [4], in assay [12] and in assay [5] was > 100 µM in each case. For the same compound, the TGI in assay [6], in assay [11], in assay [8], in assay [9] and in assay [10] was > 100 µM throughout.
Take `CSC1=C(SC)SC(=C2SC3=C(SC(=C4SCCS4)S3)S2)S1`: the TGI in [2], in assay [3], in assay [4], in assay [12], in assay [5] and in assay [6] was > 100 µM in each case. The TGI in assay [7], in assay [11], in assay [8], in assay [9] and in assay [10] was > 100 µM throughout.
With `C=C1C(=O)O[C@H]2[C@H]1[C@@H](OC(=O)C=C(C)C)CC1=C[C@@H](C[C@@]3(C)O[C@@H]23)OC1=O`, the GI50 in assay [1] was 21.3 µM; in assay [2], 0.993 µM and 2.27 µM; in assay [3] it was 0.292 µM and 2.24 µM; in [12], 3.22 µM; in assay [5] it was 0.603 µM and 2.59 µM; in assay [7] it was 4.55 µM. Also, the GI50 in assay [11] is 30 µM; in [9] it was 8.31 µM and 3.23 µM. In addition, the TGI in assay [1] was 26.5 µM and 39.2 µM; in assay [2], 2.49 µM and 4.17 µM; in [3], 0.977 µM and 4.9 µM; in assay [12], 22.6 µM and 8.1 µM; in assay [5] it was 4.39 µM and 6.93 µM; in [6], 36.2 µM. Moreover, the TGI in assay [7] was 20.6 µM and 13.7 µM; in assay [11] it was 32.1 µM and 49 µM; in assay [8] it was 28.4 µM; in assay [9], 46 µM and 8.18 µM; in [10] it was 20.9 µM.
As to `COc1ccc2c(c1)CCc1c-2[nH]c2ccc(OC)cc12`, the TGI in assay [1], in [2], in [4], in assay [12], in [5] and in assay [6] was > 100 µM each time. The TGI in [7], in [11], in assay [8], in assay [9] and in assay [10] was > 100 µM each time.
In the case of `O=C(C(=O)N1CCc2ccccc21)c1c[nH]c2ccccc12`, the TGI in assay [2], in assay [3], in assay [4], in assay [12], in assay [5] and in assay [6] was > 10 µM in each case. Also, the TGI in [7], in assay [11], in assay [8], in assay [9] and in assay [10] was > 10 µM each time.
For the compound `Clc1ccc(Cl)c(Nc2ccnc(SCc3ccccc3)n2)c1`, the TGI in assay [1], in assay [2], in assay [4], in [12], in assay [5] and in assay [7] was > 100 µM each time. Also, the TGI in assay [11], in [8], in assay [9] and in [10] was > 100 µM each time.
For the compound `Cc1cccc2c1[C@]13OC(C)[C@]4(C)CC5OC(=O)[C@@]1(C)[C@@H]5[C@]34C(=O)O2` (stereo partly specified), the TGI in assay [1], in [2], in [3], in assay [4], in assay [12] and in assay [5] was > 100 µM in each case. For the same compound, the TGI in assay [6], in assay [11], in assay [8], in assay [9] and in assay [10] was > 100 µM in each case.
Take `COc1cccc(CCn2c(N)c(-c3ccccc3)c3ccc([N+](=O)[O-])cc3c2=O)c1`: the TGI turned out to be 5.34 µM in [1]; 5.93 µM in [2]; 27.3 µM in assay [3]; 6.53 µM in assay [4]; 33.6 µM in assay [12]; 12.7 µM in assay [5]. Also, the TGI came out at 11.7 µM in assay [6]; 46.9 µM in assay [11]; 22.7 µM in assay [8]; 50 µM in assay [9]; 27.2 µM in assay [10].
Consider `CCC1OC2C(CC=C(C)C)=C3OC(C)(O)C(C)(CC)C(OC(=O)c4ccccc4)C3=C3OC(=O)C=C1C32` (stereo unspecified), for which the TGI in [1] was > 100 µM; in [2] it was 39.8 µM; in assay [3], > 100 µM; in assay [4] it was 46.2 µM; in [12] it was > 100 µM; in assay [5], > 100 µM. Besides, the TGI in assay [11], in assay [8], in assay [9] and in [10] was > 100 µM in each case.
With `CCN1c2nc3ccccc3nc2N(CC)c2nc3ccccc3nc21`, the TGI in assay [1], in assay [2], in assay [3], in assay [4], in assay [12] and in assay [5] was > 100 µM throughout. Also, the TGI in assay [6], in assay [11], in assay [8], in assay [9] and in assay [10] was > 100 µM throughout.
As for `COc1ccc2c(c1C)C(=O)C(O)(CC=C(C)C)O2` (stereo unspecified), the TGI in assay [1], in [2], in assay [3], in [4], in [12] and in assay [5] was > 100 µM each time. For the same compound, the TGI in assay [6], in assay [11], in assay [8], in assay [9] and in [10] was > 100 µM each time.
Consider `CCOC(=O)c1nc2c(Cl)c3ncccc3cc2[nH]c1=O`, for which the TGI in assay [1], in [2], in assay [3], in [12], in assay [5] and in assay [6] was > 100 µM in each case. Moreover, the TGI in [7], in [11], in assay [8], in [9] and in assay [10] was > 100 µM each time.
`CC1(C)c2ccccc2C(=O)C12CCC(=O)CC2`: the TGI in assay [2], in assay [3], in [4], in assay [12], in assay [5] and in assay [6] was > 100 µM each time. Also, the TGI in assay [7], in assay [11], in assay [8], in [9] and in assay [10] was > 100 µM in each case.
Regarding `C[C@H]1[C@H](C)CC[C@]2(C)CC[C@]3(C)C(=C[C@@H](O)[C@@H]4[C@@]5(C)[C@H](O)[C@@H](O)[C@H](O)C(C)(C)[C@@H]5CC[C@]43C)[C@H]12`, the TGI in assay [1], in assay [2], in [3], in assay [4], in assay [5] and in assay [11] was > 100 µM in each case. Further, the TGI in [8] and in assay [10] was > 100 µM each time.
As for `CC1=NC(=Cc2ccc(O)cc2)C(=O)N1n1c(-c2ccccc2)nc2ccccc2c1=O`, the TGI in assay [1], in [2], in [3], in assay [4], in assay [12] and in [5] was > 100 µM each time. The TGI in assay [6], in [8], in [9] and in assay [10] was > 100 µM each time.
In the case of `CC(=O)N(C(=O)CC(=O)N/N=C\c1ccc(Br)c(N(CCC#N)CCC#N)c1)c1ccc(Cl)cc1`, the TGI in [1], in assay [2], in assay [3], in assay [4], in [12] and in assay [5] was > 100 µM throughout. For the same compound, the TGI in assay [6] was > 100 µM; in assay [11] it was 55.9 µM; in assay [8], > 100 µM; in [9] it was > 100 µM; in assay [10], > 100 µM.
Consider `C[C@]12CCC(=O)C=C1CC[C@@H]1C2CC[C@]2(C)c3nn(-c4ccc(F)cc4)nc3CC12` (stereo partly specified), for which the TGI in assay [1], in [2], in assay [3], in assay [12], in assay [5] and in assay [6] was > 100 µM throughout. The TGI in assay [7], in assay [11], in assay [8], in assay [9] and in assay [10] was > 100 µM throughout.
`C#CCn1ncc2c(SCc3ccccc3)ncnc21`: the TGI in assay [1], in assay [2], in assay [4], in assay [12], in assay [5] and in assay [6] was > 100 µM in each case. Moreover, the TGI in [7], in assay [11], in assay [8], in assay [9] and in [10] was > 100 µM each time.
